Assay results as given in PMC3630091, “A Mechanistic Paradigm for Broad-Spectrum Antivirals that Target Virus-Cell Fusion” (PLoS Pathogens, 2013).

Legend:
[1] = reference sensitizer value; cited from earlier work
[2] = Singlet oxygen quantum yield measurements; type: physicochemical; details: error is one standard deviation; for 1O2 QY 355 nm: in CD2Cl2, excitation 355 nm; for 1O2 QY 532 nm: in CD2Cl2, excitation 532 nm
[3] = Absorbance spectra / UV-visible spectra integration; type: physicochemical; details: for Abs Max (λmax): 100 µM in DMSO; for AUC (400-750 nm): integrated absorption divided by concentration, normalized relative to LJ001 (LJ001 = 100)
[4] = Membrane partition into HIV membrane-like mixture LUV (fluorescence); details: for IL / Iw: HIV-like mixture LUV, fluorescence intensity ratio from curve fitting
[5] = Singlet oxygen quenching measurements; type: physicochemical; details: 355 nm with C60 as external sensitizer; error is one standard deviation
[6] = Acrylamide quenching in POPC vesicles; type: physicochemical; details: >50-fold molar excess of lipid; 3 mM POPC vesicles
[7] = Membrane partition into POPC LUV (fluorescence); details: for IL / Iw: POPC LUV, fluorescence intensity ratio from curve fitting
in vitro = details: human
HIV = assay: microbe, parasite or virus in culture; type: cell-based; details: Human immunodeficiency virus 1, 10 min, read-out: IC50 ± SD (nM) (N=x) HIV
Pharmacokinetics in mice = details: for MRT last / Tmax / AUC(0-t) / Cmax: female, Balb/c, mouse, in vivo; for AUC(0-t) / Cmax: po
RVFV ZH501 = type: in vivo, Balb/c mice; details: 20 pfu RVFV ZH501 IP; IP once a day for 7 days from 1 h post-challenge; JL118 1.25 mg/kg, JL122 and JL103 10 mg/kg
NDV = assay: microbe, parasite or virus in culture; type: cell-based, Newcastle disease virus; details: avian paramyxovirus 1, 10 min, read-out: IC50 ± SD (nM) (N=x) NDV
HSV = assay: microbe, parasite or virus in culture; type: cell-based, Herpes simplex virus-1; details: Human alphaherpesvirus 1, 10 min, read-out: IC50 ± SD (nM) (N=x) HSV
[8] = Clinical observations after single dose in PK study; type: in vivo, female Balb/c mice; details: single dose 2.5 mg/kg ip, about 15 min post administration
Experimental: Dose administration. […] These mice were replaced and the dose level was reduced to 5 mg/kg. […] Hypoactivity was the only clinical observation noted in some of the mice treated with the 3 test articles at 10 and 100 mg/kg po. […] These animals were replaced and administered with the lower ip dose level of 1.25 mg/kg and underwent blood collections. Mice received single ip doses of 1.25 mg/kg (JL109 and JL118) or 5 mg/kg (JL122) and po doses of 10 mg/kg (JL109, JL118, JL122), 50 mg/kg (JL109, JL118), or 100 mg/kg (JL109, JL118, JL122).

HIV-1JR-CSF = type: cell-based
enveloped viruses = type: cell-based

| Structure (SMILES) | 1O2 QY 355 nm [2] | Abs Max (λmax) [3] [nm] | AUC (400-750 nm) [3] | IL / Iw [4] | kT × 10-7 [5] | IL / Iw [7] | CC50 (in vitro) [nM] | 1O2 QY 532 nm [2] | IC50 (HIV) [nM] | MRT last (Pharmacokinetics in mice) [h] | Tmax (Pharmacokinetics in mice) [h] | AUC(0-t) (Pharmacokinetics in mice; 10 mg/kg) [ng·h/mL] | AUC(0-t) (Pharmacokinetics in mice; 50 mg/kg) [ng·h/mL] | AUC(0-t) (Pharmacokinetics in mice; 100 mg/kg) [ng·h/mL] | IC50 (NDV) [nM] | IC50 (HSV) [nM] | clinical observations [8] | other results |
| --- | --- | --- | --- | --- | --- | --- | --- | --- | --- | --- | --- | --- | --- | --- | --- | --- | --- | --- |
| O=C1OC2(c3cc(I)c(O)c(I)c3Oc3c2cc(I)c(O)c3I)c2c(Cl)c(Cl)c(Cl)c(Cl)c21 [RB, Rose Bengal] |  |  |  |  |  |  |  |  |  |  |  |  |  |  |  |  |  | 1O2 QY of reference compound at 532 nm [1]: 0.79 |
| Cc1cn([C@H]2C[C@H](N=[N+]=[N-])[C@@H](CO)O2)c(=O)[nH]c1=O [AZT] |  |  |  |  |  |  |  |  |  |  |  |  |  |  |  |  |  | t1/2 (inhibition half-life, time-of-addition) (HIV-1JRCSF): > 8.33 h |
| C=CCN1C(=O)S/C(=C\c2ccc(-c3ccccc3)o2)C1=O [LJ025, (Z)-3-allyl-5-((5-phenylfuran-2-yl)methylene)thiazolidine-2,4-dione] | 0 | 405 | < 100 | 3.60 | 0.191 ± 0.010 M-1s-1 | 2.79 | > 50000 |  |  |  |  |  |  |  |  |  |  | fraction protected from the water-soluble quencher (acrylamide) [6]: over 85%; melting point: 149 to 151 °C |
| CCN1C(=S)O/C(=C\c2ccc(-c3ccc(N(C)C)cc3)o2)C1=S [JL118, (Z)-5-((5-(4-(dimethylamino)phenyl)furan-2-yl)methylene)-3-ethyloxazolidine-2,4-dithione] | 0.14 ± 0.01 | 610 | 200 | 488 | 4.600 ± 0.300 M-1s-1 | 233 | 37000 | 0.15 ± 0.02 | 11.7 ± 5.5 | 5.3 to 11.4 | 0.25 to 1 | 1350 | 841 | 1160 | 2.1 ± 1.4 | 10.1 ± 8.6 | deaths occurred in the initial 3 animals | total integrated absorption (AUC), times that of LJ001 ([3]; λ = 400 to 750 nm): 2 times; Kp at 10 min, 50 µM [4]: 2010; improvements in relevant pharmacokinetic (PK) parameters compared to LJ001 (Pharmacokinetics in mice; half-life, AUC, bioavailability, clearance): > 10 fold; time-to-death / survival compared to untreated controls (RVFV ZH501): moderate but significant delay in time-to-death; Kp at 10 min, 50 µM [7]: 2700; antiviral potency at physiological hematocrits (HIV-1JR-CSF): maintained their antiviral potency; improved in vitro potency compared to LJ001 (enveloped viruses): 10-100 fold |
| CCN1C(=S)O/C(=C\c2ccc(-c3ccc(OC)cc3OC)o2)C1=S [JL109, (Z)-5-((5-(2,4-dimethoxyphenyl)furan-2-yl)methylene)-3-ethyloxazolidine-2,4-dithione] | 0.37 ± 0.02 | 550 | 178 |  | 2.000 ± 0.100 M-1s-1 |  | 8510 | 0.38 ± 0.02 | 4.5 ± 4.8 | 4.5 to 10 | 0.25 to 1 | 354 | 595 | 538 | 3.8 ± 3.9 | 0.7 | deaths occurred in the initial 3 animals | Cmax (Pharmacokinetics in mice; 10 mg/kg, po 10 mg/kg): 88.2 ng/mL; Cmax (Pharmacokinetics in mice; 50 mg/kg, po 50 mg/kg): 127 ng/mL; Cmax (Pharmacokinetics in mice; 100 mg/kg, po 100 mg/kg): 78.2 ng/mL |
